The values that follow come from publication PMC12303080, “Diverse actions of 15 structurally unrelated mitochondrial uncouplers in cells and mice” (Molecular Metabolism, 2025).

Read-outs that look alike come from different tables or passages of the source.

Series [1] deals with CHO–K1 cells. Kind of series: OCR in the absence or presence of oligomycin (Supplementary Fig. 6). As to conditions: 1 μM oligomycin; for Effect of oligomycin on uncoupler-stimulated OCR: uncoupler at lowest concentration yielding MaxOCR. It is filed as cell-based, Cricetulus griseus. The procedure:
ATP synthase is the major conduit through which protons re-enter the mitochondrial matrix. Thus, we sought to investigate whether the selected uncouplers could stimulate oxygen consumption in the presence of the ATP synthase inhibitor oligomycin.
Supplementary Figure 6. […] At ~24 minutes, 1 μM of oligomycin or vehicle was injected, followed by the injection of the indicated uncoupler or vehicle at ~44 minutes, and 0.5 μM Rotenone / Antimycin A at ~88 minutes.

The subject of series [2] is CHO–K1 cells. Kind of series: Seahorse XF-96 OCR dose response of 15 uncouplers (Figure 2). The series is classed as cell-based, Cricetulus griseus. As to conditions: CHO–K1; for MaxOCR: 0.32–200 μM, first 24 min post injection; for EC50: mean OCR (% basal) over first 24 min post injection, ± standard error, four-parameter fit, read-out: EC50 (increase of OCR); for MaxOCR lower than that seen with BAM15: Figure 2; for Concentration range with sustained enhanced OCR (OCR ≥ 150% basal): tested 0.32–200 μM.
Method: (§1) Stock solutions of the uncouplers and/or Rotenone/Antimycin A were diluted in Seahorse media to give the final concentration indicated in Figure 1, Figure 2, Figure 3 with 0.4% (v/v) DMSO in wells.

The next series relates to db/db mice. The series can be described thus: Four-week treatment by admixture in chow, metabolic phenotyping. As to conditions: 4 weeks; for Body weight / weight gain vs db/db controls: 0.15% BAM15, 0.02% OPC-163493, 0.015% and 0.03% ES9, NTZ and NEN both doses; for Body weight, food intake, or metabolic tissue weights vs control: 0.25% NEN, 0.2% NTZ, 0.01% and 0.02% OPC-163493; for Blood glucose, HbA1c, glucose tolerance vs control / Overall metabolic phenotype vs db/db control (Figure 8, words): NEN both doses; for Blood glucose, HbA1c, glucose tolerance vs control: 0.01% OPC, 0.015% ES9, 0.2% NTZ; for Overall metabolic phenotype vs db/db control (Figure 8, words): OPC-163493 both doses, NTZ 0.2%; for Liver mass vs db/db control: both doses of BAM15, low dose NEN; for Daily food intake: both doses of BAM15, low dose of NEN, high dose of NTZ.

Series [3] in a line: Drug exposure / pharmacokinetics after oral gavage. As to conditions: male, C57BL/6J, mouse, plasma, 10 mg/kg.
Method: Standards were prepared by spiking known concentrations (0.1, 1, 10, 100 and 1000 ng) of the uncoupler into whole blood prior to extraction. Plasma was obtained by centrifugation at 2000×g for 10 min at 4 °C. Seven microlitres (7 μL) of plasma was precipitated in 100 μL of 90% (v/v) acetonitrile and 10% (v/v) methanol. The resulting solution was vortexed for 5 s and then centrifuged at 21,130×g for 10 min at 4 °C. The supernatant was collected in auto-sampler vials for mass spectrometry.
Plasma concentration of mitochondrial uncouplers at indicated timepoints was determined by LC-MS/MS. Error bars show SEM, n = 3 per mitochondrial uncoupler.
For series [4], the system named is Zucker diabetic fatty rats, Akita mice, and Otsuka Long-Evans Tokushima Fatty rats. Also on record: method as in PMID 31092829. As to conditions: decreased HbA1c and lowered fasting blood glucose; cited from earlier work.
For series [5] the following is noted: in vivo; cited from earlier work.
Series [6] is described as follows: Terminal plasma drug concentration by LC-MS/MS. The series is classed as in vivo. As to conditions: db/db mice, study endpoint; TIZ row: mice fed 0.2% NTZ. How it is done:
LC-MS/MS was performed using a Shimadzu Prominence LCMS-8030 as previously described.
Figure 7 Plasma drug concentration and markers of tissue damage in db/db mice at study endpoint. Plasma was collected via cardiac puncture at time of euthanasia. A–E) Terminal plasma drug concentration was measured by LC-MS/MS. F–I) Terminal plasma concentration of liver function indicators (ALT, AST and GLDH) and kidney function indicator (urea). Graphs show mean ± SEM, n = 6–9 per group for plasma drug concentration measurement. Due to the limited volume of samples, not all liver and kidney function tests could be performed for all mice.

A further series deals with RAW 264.7 cells. As to conditions: 0.5–50 μM.
Another series has as its system HEK-293T cells. As to conditions: HEK293T; 0.5–50 μM.
The next series relates to HeLa cells. As to conditions: 0.5–50 μM.
The test system of series [7] is CHO–K1 cells. As to conditions: 0.5–50 μM, BAM15 at 5 μM, FCCP at 1 μM.
Method: as §1
In series [8] the test system is CDAA/c mouse model of NASH. Also on record: method as in earlier work. As to conditions: cited from earlier work.
The subject of a further series is SARS-CoV-2. Also on record: method as in PMID 35237748. As to conditions: two 300 mg extended release tablets; placebo […]; cited from earlier work.
For series [9], the system named is rats. Kind of series: NTZ toxicology study in rats (literature). The series is classed as in vivo. As to conditions: worked out from rat dose.
The test system of series [10] is rats. Also noted: method as in PMID 3889119. As to conditions: cited from earlier work.
The test system of the next series is isolated rat hepatocytes. Also noted: method as in PMID 12150871, PMID 31297293. As to conditions: read-out: EC50, inhibiting oxygen consumption; cited from earlier work.
[11] abbreviates: Cricetulus griseus, CHO-K1, 0.4 h.

Method for HEK-293T cells: as §1
(§2) The dashed line indicates basal respiration, defined as the mean OCR over the first 24 minutes of the assay. Error bars show SEM, n = 3 per condition from three separate experiments.
Method for HeLa cells: as §1, §2
Method for RAW 264.7 cells: as §1, §2
Method for db/db mice: Body weight and glucose tolerance of male db/+ and db/db mice was assessed at 8–9 weeks of age to obtain baseline measurements. Db/+ were used as lean metabolically healthy controls and given ad libitum access to chow diet. Db/db mice were stratified into 12 groups using R (V4.4.0).
Mice were on treatment for a period of four weeks, during which body weight and food intake were measured daily. […] To counter this, food traps were placed beneath hoppers and leftover food in both the traps and hoppers was weighed daily. HbA1c was measured weekly. At the end of the treatment period, a glucose tolerance test was conducted, with fed and fasted bloods collected. At termination, blood was collected via cardiac puncture under isoflurane anaesthesia. Mice were euthanised by cervical dislocation and harvested tissues were flash-frozen in liquid nitrogen and stored at −80 °C.
Mice were fasted for 6 h and then received intraperitoneal injections of 20% (w/v) dextrose at a dose of 1 g/kg lean body mass. Blood glucose (BG) was measured at the time of fasting (random-fed BG) and then again prior to the commencement of the GTT following the 6-hour daytime fast (fasted BG). […] The rate of glucose clearance was measured using the trapezoidal method for calculation of area under the curve.
HbA1c was measured once weekly using an A1cNow + Portable HbA1c Test Kit. […] HbA1c was measured in the random-fed state.
A glucose tolerance test was conducted at the end of the treatment period, with random fed and 6-hour fasted bloods collected. Blood was collected in heparin tubes and kept on ice prior to centrifugation at 2000×g for 10 min at 4 °C to extract plasma. Plasma insulin concentration was determined using the Crystal Chem Ultra-Sensitive Mouse Insulin ELISA kit, according to manufacturers' instructions for the high range (1–64 ng/mL) assay.

As to `FC(F)(F)c1nc2c(Cl)c(Cl)c(Cl)c(Cl)c2[nH]1` [TTFB, 4,5,6,7-Tetrachloro-2-trifluoromethylbenzimidazole], the “Effect of oligomycin on uncoupler-stimulated OCR” value (shortened to “Effect of oligomycin”) with CHO–K1 cells [1] was “largely unaffected by the presence of oligomycin”. Further, in the series with CHO–K1 cells [2], the MaxOCR is 280 % of basal. Besides, in the series with CHO–K1 cells [2] (first 24 min), the “Concentration inducing decline in OCR to sub-basal levels” value is 200 µM. The concentration for a half-maximal effect (EC50) – broadly, the concentration needed to bring the measured effect to its halfway point – in the series with CHO–K1 cells [2] (setting [11]) was 520 nM.
On to `Cc1sc(-c2ccc(C(F)(F)F)cc2)nc1-c1nn[nH]c1C#N` [OPC-163493, 4-(5-methyl-2-(4-(trifluoromethyl)phenyl)thiazol-4-yl)-1H-1,2,3-triazole-5-carbonitrile], for which the “Effect of oligomycin” value with CHO–K1 cells [1] is reported as “largely unaffected by the presence of oligomycin”. Further, in the series on db/db mice, the “Body weight / weight gain vs db/db controls” value is “non-significant trend for lower body weight”; the “Body weight, food intake, or metabolic tissue weights vs control” value (shortened to “Body weight, food intake … vs control”) is listed as “not significantly different”; the “Blood glucose, HbA1c, glucose tolerance vs control” value (“Blood glucose, HbA1c … vs control” for short) is “did not have significantly lower random-fed or 6-hour fasted blood glucose”; the “Overall metabolic phenotype vs db/db control (Figure 8, words)” value is recorded as “No statistically significant changes”. In addition, in the series with CHO–K1 cells [2], the “Concentration giving max efficacy / MaxOCR” value stood at 10 µM, the “MaxOCR lower than that seen with BAM15” value is listed as approximately 22% and the EC50 is 1000 nM. The 50% effective concentration (EC50) in the series on CHO–K1 cells [2] (setting [11]) came out at 1010 ± 1200 nM. The Cmax (in general, the maximum level reached in the sampled fluid or tissue) in [3] came to 30.9 µM. In [4], the “Doses with significant anti-diabetic effects (as low as)” value is not below 2 mg/kg/day.
In the case of semaglutide, the “Loss of lean mass” value in series [5] is “up to 40 % of total weight lost”.
As for liraglutide, the “Loss of lean mass” value in [5] is “up to 60 % of total weight lost”.
For `O=C(Nc1cc(Cl)cc(Cl)c1)Nc1cc(Cl)cc(Cl)c1` [SR4, 1,3-bis(3,5-dichlorophenyl)urea], in the series on CHO–K1 cells [2], the “Concentration at which OCR increased above basal levels” value worked out at 200 µM and the MaxOCR is given as ~117 % of basal.
In the case of `CCCCCCCCCCCC[P+](c1ccccc1)(c1ccccc1)c1ccccc1` [C12TPP, Dodecyl-triphenylphosphonium], in the series with CHO–K1 cells [1] (initially), the “Higher OCR in the presence of oligomycin” value is approximately 60%. The “Effect of oligomycin” value with CHO–K1 cells [1] is on record as “largely unaffected by the presence of oligomycin”. In the series on CHO–K1 cells [2], the “Concentration giving max efficacy / MaxOCR” value is 3.16 µM and the MaxOCR is ~178 % of basal. The “OCR at higher doses” value in the series with CHO–K1 cells [2] (doses above 3.16 μM) was ~18 % of baseline. For the same molecule, in the series with CHO–K1 cells [2] (Cricetulus griseus, 0.4 h), the EC50 was found to be 1020 ± 980 nM.
In the case of `O=C(Nc1ncc([N+](=O)[O-])s1)c1ccccc1O` [TIZ, tizoxanide], in series [6], the “Terminal plasma drug concentration vs in vitro uncoupling range” value was “lower than the concentration at which oxygen consumption rate was enhanced in vitro”.
For the molecule `COc1cc(C(=O)OCC=C(C)C)nc2c(OCC=C(C)C)cccc12` [Ppc-1, Polysphondylium pseudo-candidum-1], in the series with CHO–K1 cells [2] (31.6 μM), the “OCR at 31.6 μM” value is given as approximately 130 % basal. In addition, the “Concentration inducing decline in OCR to sub-basal levels” value in the series with CHO–K1 cells [2] (after ∼40 min of treatment) is “over 31.6 μM”. The 50% effective concentration (EC50) with CHO–K1 cells [2] (setting [11]) was determined as 13500 ± 7140 nM.
For the molecule `N#CC(C#N)=NNc1ccc(OC(F)(F)F)cc1` [FCCP, Carbonyl cyanide p-trifluoromethoxyphenylhydrazone], in the series with CHO–K1 cells [1], the “Effect of oligomycin” value is listed as “largely unaffected by the presence of oligomycin”. For the same molecule, the “Stimulation of OCR” value in the series on RAW 264.7 cells, with HEK-293T cells and in the series on HeLa cells was “failed to stimulate OCR above basal levels” throughout. In addition, the results for the MaxOCR with CHO–K1 cells [2] and with CHO–K1 cells [7] were 260 % of basal and approximately 260 % basal, respectively. Also, the EC50 with CHO–K1 cells [2] (setting [11]) is 310 nM.
On to `CNC(=O)c1cc(Oc2ccc(NC(=O)Nc3ccc(Cl)c(C(F)(F)F)c3)cc2)ccn1` [Sorafenib, 4-[4-({[4-chloro-3 (trifluoromethyl)phenyl]carbamoyl}amino)phenoxy]-N-methylpyridine-2-carboxamide], for which the “Uncoupling activity” value in the series with CHO–K1 cells [2] (tested concentration range, 120-minute assay) is on record as “did not have any uncoupling activity”.
Regarding `O=C(Nc1ccc([N+](=O)[O-])cc1Cl)c1cc(Cl)ccc1O` [NEN, Niclosamide ethanolamine], the “Effect of oligomycin” value in the series on CHO–K1 cells [1] is on record as “largely unaffected by the presence of oligomycin”. Moreover, in the series on db/db mice, the “Body weight / weight gain vs db/db controls” value is given as “little impact on body weight”; the “Body weight, food intake … vs control” value is listed as “not significantly different”; the “Blood glucose, HbA1c … vs control” value is “did not have significantly lower random-fed or 6-hour fasted blood glucose”; the “Overall metabolic phenotype vs db/db control (Figure 8, words)” value is reported as “no significant changes compared to the db/db control except lower liver weight”. Besides, the “Daily food intake” value with db/db mice is recorded as “restored normal food intake”. The “Liver mass vs db/db control” value in the series on db/db mice (high dose NTZ) is reported as “statistically decreased liver mass”. Moreover, in the series with CHO–K1 cells [2], the “MaxOCR lower than that seen with BAM15” value is given as approximately 25% and the “Concentration range with sustained enhanced OCR (OCR ≥ 150% basal)” value was 0.32 µM. In addition, the EC50 in the series with CHO–K1 cells [2] (setting [11]) worked out at 90 nM.
Regarding `CC(=O)Oc1ccccc1C(=O)Nc1ncc([N+](=O)[O-])s1` [NTZ, Nitazoxanide], the “Decrease in liver fibrosis” value in series [8] (100 mg/kg/day) is reported as 32%. Besides, the “Decrease in liver fibrosis” value in [8] (co-administered with Elafibranor) is reported as 60%. Moreover, in the series with db/db mice, the “Body weight / weight gain vs db/db controls” value is “little impact on body weight”; the “Body weight, food intake … vs control” value was “not significantly different”; the “Blood glucose, HbA1c … vs control” value was “did not have significantly lower random-fed or 6-hour fasted blood glucose”; the “Overall metabolic phenotype vs db/db control (Figure 8, words)” value was “no statistically significant phenotype”. Also, in the series with db/db mice, the “Daily food intake” value is reported as “restored normal food intake”. In the series on db/db mice (0.4% in chow), the “Gonadal fat less than control group” value is 26% and the “Post-treatment GTT AUC lower than control group” value is given as approximately 29%. Further, the “Liver mass vs db/db control” value with db/db mice (high dose NTZ) was “statistically decreased liver mass”. Moreover, the “HbA1c” value in the series on db/db mice (both doses of BAM15, printed 0.3% ES9, 0.4% NTZ) is recorded as “lowered HbA1c levels”. Also, in the series with db/db mice (either dose of BAM15, high dose ES9, high dose NTZ), the “Fasting and random fed blood glucose” value is “partial efficacy”. Moreover, in the series on db/db mice (high dose NTZ (0.4%)), the “Increase of liver cholesterol concentration vs db/db control” value was approximately 1.7 fold. Also, in the series on db/db mice (low dose NTZ (0.2%)), the “Increase of liver cholesterol concentration vs db/db control” value is listed as approximately 1.5 fold. In the series with SARS-CoV-2, the “Patients progressed to severe disease” value is 0.5%. Also, the “Mouse equivalent dose of the rat adverse effect dose” value in the series with rats [9] is approximately 900 mg/kg/day. The EC50 in the series on CHO–K1 cells [2] (setting [11]) amounted to 2320 ± 460 nM. The “Doses with increased salivation and lethargy, increased liver and spleen size” value with rats [10] is not below 450 mg/kg/day.
Turning to `Cc1c2ccncc2c(C)c2c1[nH]c1ccccc12` [ELL, Ellipticine], in the series on CHO–K1 cells [2], the “Concentration at which OCR increased above basal levels” value is more than 100 µM and the MaxOCR is listed as ~122 % of basal.
On to `CC(C)(C)c1cc(C=C(C#N)C#N)cc(C(C)(C)C)c1O` [TyrA9, Tyrphostin A9], for which the “Effect of oligomycin” value in the series with CHO–K1 cells [1] is on record as “largely unaffected by the presence of oligomycin”. Besides, in the series with CHO–K1 cells [2], the “MaxOCR lower than that seen with BAM15” value is given as approximately 140%. Besides, the “Concentration range with sustained enhanced OCR (OCR ≥ 150% basal)” value in the series with CHO–K1 cells [2] is not above 100 µM. Moreover, the values for the 50% effective concentration (EC50) in the series on CHO–K1 cells [2] (setting [11]) and in the series with isolated rat hepatocytes were 10 nM and 78 µM, respectively.
